Patent US11911178B2, “System and method to detect and treat arrhythmogenic regions in atrial fibrillation” (Northwestern University, priority 2020, dated 2024)

Tested on: atrial fibrillation
Experiment: open chest epicardial electrogram mapping of atrial fibrillation in animals at baseline and after ROS scavenger (NAC) administration
Type: in vivo
Description: In an illustrative embodiment, the proposed method and system involve use of an electrogram to monitor a patient's heart characteristics. An electrode recording system can be used to receive and store baseline electrogram signals from the heart of the patient during sinus rhythm. As discussed in more detail below, mapping is performed based on the received electrogram signals to generate high resolution maps in multiple atrial regions of the patient. A reactive oxygen species scavenger (e.g., NAC) is then administered to the patient. The electrogram is used to measure various characteristics of the heart after administration of the ROS scavenger. These characteristics can include dominant frequency (DF), cycle length (CL), organization index (OI), fractionation index (FI), recurrence morphology percentage (Rec %), Shannon's entropy (ShEn), conduction velocity, and voltage. The monitored characteristics can also include the number and stability of rotational, focal, and wavelet activities in different atrial regions of the heart. The various atrial regions of the heart can include posterior left atrium (PLA), left atrial free wall (LAFW), left atrial appendage (LAA), posterior right atrium (PRA), right atrial free wall (RAFW), right atrial appendage (RAA), etc. In alternative embodiments, different heart regions may be used.
In an illustrative embodiment, the proposed system uses a computing system to perform calculation of percentage changes of AF characteristics at each electrogram electrode location at different time intervals subsequent to administration of the ROS scavenger. The percentage changes are based on the baseline readings from the electrogram (i.e., the readings received prior to administration of the ROS scavenger). For example, the calculations of percentage changes can be after 30 minutes, 1 hour, and 2 hours in one embodiment. Alternatively, different or additional times may be used, such as 45 minutes, 1.5 hours, 3 hours, 4 hours, etc. In some implementations, rebolus of the ROS scavenger administration may be performed in between the time periods.
Referring to FIG. 2B, a baseline measurement for each of a plurality of characteristics is obtained using the electrogram system in an operation 230. The baseline measurements are measured prior to administration of the ROS scavenger in an operation 235, and mapping of the various characteristics is performed based on the measured characteristics in an operation 240. Any of the characteristics described herein can be used. The system continues conducting measurements using the electrogram at various periods of time subsequent to administration of the ROS scavenger, such as 30 minutes, 1 hour, 2 hours, etc. The system also calculates the percentage change for each of the measured characteristics at each of the periods of time, as compared to the baseline measurements in an operation 245. Hotspots are identified for each measured characteristic based on the percentage changes in the operation 245. In one embodiment, the determined percentage changes are compared to a percentage change threshold to determine whether a given area is a hotspot. The percentage change threshold can be 5%, 8%, 10%, 20%, etc. depending on the implementation. Alternatively, instead of basing the determination on the percentage change, the determination of whether an area is a hotspot can be based on the amount of absolute change in the measured characteristic, and can vary for each characteristic. Based on the identified hotspots, the system also calculates the percentage of overlap among the various hotspots from each of the characteristics in an operation 250. The system maps the overlapping hotspots (based on the percentage of overlap) so that they can be visualized in an operation 255, and the overlapping hotspots are then targeted for treatment.
Experiments were conducted on animals using the techniques described herein. […]

Structure (SMILES): CC(=O)N[C@@H](CS)C(=O)O [NAC, N-acetylcysteine]
- mapping field showing hotspot overlap in >50% of the EGM measures (Animal 1, LAFW, 1 hour after administration): 36%
- mapping field showing hotspot overlap in >50% of the EGM measures (Animal 1, LAFW, 2 hours after administration): 13%
- mapping field showing hotspot overlap in >50% of the EGM measures (Animal 8, LAFW, 1 hour after administration): 15%
- mapping field showing hotspot overlap in >50% of the EGM measures (Animal 8, LAFW, (2) hours after administration): 48%
- DF peak (LAFW and PLA, 1 hour after NAC, baseline peak 11.5 Hz, histogram of all 10 hearts): 9 Hz
- DF peak (LAFW and PLA, 2 hours after NAC, baseline peak 11.5 Hz, histogram of all 10 hearts): 7.5 Hz
- stability of observed 360 degree rotations in activation maps (LAFW, after NAC administration): significantly decreased
- DF peak (RAA, after 1 hr NAC, baseline peak 8.5 Hz): 7.5 Hz
- rotational source (after NAC administration): reduced
- mapping field with overlap in more than 50% of the electrogram measurements (percentage change threshold 5%, Animal 1, 1 hour after administration): 19%
- mapping field with overlap in more than 50% of the electrogram measurements (percentage change threshold 5%, Animal 1, 2 hours after administration): 27%
- mapping field with overlap in more than 50% of the electrogram measurements (percentage change threshold 5%, Animal 8, 1 hour after administration): 17%
- mapping field with overlap in more than 50% of the electrogram measurements (percentage change threshold 5%, Animal 8, 2 hours after administration): 47%
- mapping field with overlap in more than 50% of the electrogram measurements (percentage change threshold 20%, Animal 1, after 1 hour): 2%
- mapping field with overlap in more than 50% of the electrogram measurements (percentage change threshold 20%, Animal 1, after 2 hours): 7%
- mapping field with overlap in more than 50% of the electrogram measurements (percentage change threshold 20%, Animal 8, after 1 hour): 6%
- mapping field with overlap in more than 50% of the electrogram measurements (percentage change threshold 20%, Animal 8, after 2 hours): 29%
